How the values were obtained:
Type in all cases: in vivo
[1] = acute toxicity in the mouse (median lethal dose); conditions: in vivo; acute toxicity, mouse; read-out: dose léthale moyenne
Source text: (§1) Les sels de 2,2-bis phénoxy NN-diméthyl éthylamine sont décrits comme possédant des propriétés anti-dépressives.

[2] = apomorphine test (apomorphine-induced hypothermia)
Source text: (§2) Le N-oxyde de 2,2-bis phénoxy NN-diméthyl éthylamine et ses sels possèdent les propriétés caractéristiques des autres anti-dépresseurs, sur les tests pharmacologiques classiques. Ils inhibent l'effet hypothermisant de la réserpine, et de l'apomorphine, ils augmentent la toxicité de groupe induite par injection de yohimbine et ils antagonisent le test du désespoir chez la souris.

[3] = yohimbine-induced group toxicity
Source text: as §2

souris [4] = test: despair test in the mouse; conditions: qualitative
Source text: as §2

souris [5] = test: acute toxicity in the mouse (median lethal dose)
Source text: as §1

[6] = reserpine-induced hypothermia test; conditions: qualitative
Source text: as §2

[7] = compared with 2,2-bis phénoxy NN-diméthyl éthylamine

| Structure (SMILES) | LD50 [1] [mg/kg] | action antagoniste sur le test à l'apomorphine [2, 7] | effet hypothermisant de l'apomorphine ([2]; qualitative) | action positive vis-à-vis de la toxicité de groupe à la yohimbine [3, 7] | toxicité de groupe induite par injection de yohimbine ([3]; qualitative) | test du désespoir chez la souris (souris [4]) | dose léthale moyenne (souris [5]; acute toxicity, mouse) | toxicité (souris [5]; qualitative statement) | effet hypothermisant de la réserpine [6] |
| --- | --- | --- | --- | --- | --- | --- | --- | --- | --- |
| CN(C)CC(Oc1ccccc1)Oc1ccccc1 [2,2-bis phénoxy NN-diméthyl éthylamine, reference compound] | ~800 |  |  |  |  |  |  |  |  |
| C[N+](C)([O-])CC(Oc1ccccc1)Oc1ccccc1 [N-oxydede 2,2-bis phénoxy NN-diméthyl éthylamine] |  | nettement plus marquées | inhibent | nettement plus marquées | augmentent | antagonisent | il n'a pas été possible de déterminer | très faible | inhibent |
